Results published in ChEMBL document CHEMBL3727348, “3-(aryl or heteroaryl) methyleneindolin-2-one derivatives as inhibitors of cancer stem cell pathway kinases for the treatment of cancer” (2014).

The molecules below were run on FaDu (assay: Cytotoxic activity against human FADU bulk cells incubated for 72 hrs by Cell-titer-Glo luminescence assay). Conditions: not given.
Assay type: functional, cell-based
With `CCN(CC)CCNC(=O)c1c(C)[nH]c(/C=C2\C(=O)Nc3ccc(-c4nnc(-c5ccccc5)o4)cc32)c1C` the IC50 was 8.23 µM. `Cc1[nH]c(/C=C2\C(=O)Nc3ncc(-c4csc(-c5ccccc5)n4)cc32)c(C)c1C(=O)N1CCN(C)CC1` gave an IC50 of 39.2 µM. Work on `CCN(CC)CCN1CCCc2[nH]c(/C=C3\C(=O)Nc4ccc(-c5csc(-c6ccccc6)n5)cc43)c(C)c2C1=O` yielded an IC50 of 5.31 µM. `Cc1[nH]c(/C=C2\C(=O)Nc3ccc(-c4cnn(-c5ccccc5)c4C)cc32)c(C)c1C(=O)N1CCOCC1` gave an IC50 of 6.76 µM. `CCN(CC)CCNC(=O)c1c(C)[nH]c(/C=C2\C(=O)Nc3ccc(-c4nnc(-c5ccccc5)s4)cc32)c1C` was tested, and the IC50 was 2.15 µM. `CCN(CC)CCNC(=O)c1c(C)[nH]c(/C=C2\C(=O)Nc3ccc(-c4csc(-c5ccc(Br)cc5)n4)cc32)c1C` showed an IC50 of 3.68 µM. `Cc1[nH]c(/C=C2\C(=O)Nc3ccc(-c4ccc(-c5ccccc5)s4)cc32)c(C)c1C(=O)NCCN1CCCC1` showed an IC50 of 4.44 µM. For `CCN(CC)CCNC(=O)c1c(C)[nH]c(/C=C2\C(=O)Nc3ccc(C4CCN(c5ccccc5)CC4)cc32)c1C`, the IC50 was 1.89 µM. Work on `O=C1Nc2ccc(-c3csc(-c4ccncc4)n3)cc2/C1=C/c1ccc(N2CCNCC2)cc1` yielded an IC50 of 25.2 µM. For `CCN(CC)CCNC(=O)c1c(C)[nH]c(/C=C2\C(=O)Nc3cnc(-c4csc(-c5ccccc5)n4)cc32)c1C`, the IC50 was 11.2 µM. For `CCN(CC)CCNC(=O)c1c(C)[nH]c(/C=C2\C(=O)Nc3ccc(C4CCN(C5CCOCC5)CC4)cc32)c1C`, the IC50 was 23.9 µM. With `CCN(CC)CCNC(=O)c1c(C)[nH]c(/C=C2\C(=O)Nc3ccc(-c4ccc(-c5cccnc5)s4)cc32)c1C` the IC50 was 14.3 µM. `CCN(CC)CCNC(=O)c1c(C)[nH]c(/C=C2\C(=O)Nc3ccc(C4CCN(c5ncccn5)CC4)cc32)c1C` was tested, and the IC50 was 6.47 µM. Work on `CC(=O)N1CCC(N2CCC(c3ccc4c(c3)/C(=C/c3[nH]c(C)c(C(=O)N5CCN(C)CC5)c3C)C(=O)N4)CC2)CC1` yielded an IC50 of 23.2 µM. Work on `COc1cccnc1-c1ccc2c(c1)/C(=C/c1[nH]c(C)cc1C)C(=O)N2` yielded an IC50 of 33.2 µM. `Cc1[nH]c(/C=C2\C(=O)Nc3ccc(-c4cnn(-c5ccccc5)c4C)cc32)c(C)c1C(=O)NCCN1CCCC1` showed an IC50 of 5.79 µM. `CCN(CC)CCNC(=O)c1c(C)[nH]c(/C=C2\C(=O)Nc3ccc(-c4cnc(-c5ccccc5)s4)cc32)c1C` showed an IC50 of 23.7 µM. `CCN(CC)CCNC(=O)c1c(C)[nH]c(/C=C2\C(=O)Nc3ccc(-c4ccnn4-c4ccc(C#N)cc4)cc32)c1C` was tested, and the IC50 was 17.3 µM.

What follows are molecules tested on FaDu (assay: Cytotoxic activity against human FADU cancer stem cells incubated for 72 hrs by Cell-titer-Glo luminescence assay). Conditions: not given.
Assay type: functional, cell-based
With `Cc1[nH]c(/C=C2\C(=O)Nc3ccc(-c4ncc(-c5ccccc5)o4)cc32)c(C)c1C(=O)N1CCN(C)CC1` the IC50 was 2.38 µM. For `O=C1Nc2ccc(-c3csc(-c4ccccc4)n3)cc2/C1=C/c1ccc(C(=O)NCCN2CCOCC2)c(=O)[nH]1`, the IC50 was 33.7 µM. `CCN(CC)CCNC(=O)c1c(C)[nH]c(/C=C2\C(=O)Nc3ncc(-c4csc(-c5ccccc5)n4)cc32)c1C` was tested, and the IC50 was 1.6 µM. Work on `CN1CCN(C(=O)c2ccc(/C=C3\C(=O)Nc4ccc(-c5csc(-c6ccccc6)n5)cc43)[nH]c2=O)CC1` yielded an IC50 of 23.2 µM. For `Cc1[nH]c(/C=C2\C(=O)Nc3ccc(-c4ccnn4-c4ccc(C#N)cc4)cc32)c(C)c1C(=O)N1CCN(C)CC1`, the IC50 was 48.2 µM. `Cc1cc(C)c(/C=C2\C(=O)Nc3cc(-c4cnc5ccnn5c4)ccc32)[nH]1` showed an IC50 of 14.9 µM. Molecule `Cc1cc(C)c(/C=C2\C(=O)Nc3cc(-c4ccc(-c5ccccc5)nc4)ccc32)[nH]1` has an IC50 of 18.2 µM. `CCOC(=O)CCc1cccc(-c2nc(-c3ccc4c(c3)/C(=C/c3[nH]c(C)c(C(=O)NCCN(CC)CC)c3C)C(=O)N4)cs2)c1` gave an IC50 of 2.34 µM. For `Cc1[nH]c(/C=C2\C(=O)Nc3ccc(-c4cnn(-c5ccccn5)c4)cc32)c(C)c1C(=O)N1CCOCC1`, the IC50 was 8.94 µM. Molecule `O=C1Nc2ccc(-c3csc(-c4ccncc4)n3)cc2/C1=C/c1cc2ccccc2[nH]1` has an IC50 of 3.07 µM. Molecule `CCN(CC)CCNC(=O)c1c(C)[nH]c(/C=C2\C(=O)Nc3ccc(-c4nnc(-c5ccccc5)o4)cc32)c1C` has an IC50 of 21.5 µM. Work on `Cc1[nH]c(/C=C2\C(=O)Nc3ccc(-c4cnn(-c5ccccc5)c4C)cc32)c(C)c1C(=O)N1CCOCC1` yielded an IC50 of 37.2 µM. In the case of `CCN(CC)CCNC(=O)c1c(C)[nH]c(/C=C2\C(=O)Nc3ccc(-c4nnc(-c5ccccc5)s4)cc32)c1C`, the IC50 is reported as 0.23 µM. `CCN(CC)CCNC(=O)c1c(C)[nH]c(/C=C2\C(=O)Nc3ccc(-c4csc(-c5ccc(Br)cc5)n4)cc32)c1C` gave an IC50 of 1.33 µM. Molecule `Cc1[nH]c(/C=C2\C(=O)Nc3ccc(-c4ccc(-c5ccccc5)s4)cc32)c(C)c1C(=O)NCCN1CCCC1` has an IC50 of 1.64 µM. `Cc1[nH]c(/C=C2\C(=O)Nc3ccc(-c4csc(C5CCNCC5)n4)cc32)c(C)c1C(=O)O` gave an IC50 of 5.62 µM. Molecule `CCOC(=O)c1c(C)[nH]c(/C=C2\C(=O)Nc3ccc(-c4csc(-c5ccccc5)n4)cc32)c1C` has an IC50 of 20.2 µM. `Cc1[nH]c(/C=C2\C(=O)Nc3ccc(-c4cnn(-c5ccccc5)c4C)cc32)c(C)c1C(=O)N1CCN(C)CC1` showed an IC50 of 14.8 µM. `CCN(CC)CCNC(=O)c1c(C)[nH]c(/C=C2\C(=O)Nc3ccc(C4CCN(c5ccccc5)CC4)cc32)c1C` was tested, and the IC50 was 1.3 µM. Molecule `CCN(CC)CCNC(=O)c1c(C)[nH]c(/C=C2\C(=O)Nc3cnc(-c4csc(-c5ccccc5)n4)cc32)c1C` has an IC50 of 4.75 µM. With `Cc1cc(C)c(/C=C2\C(=O)Nc3cc(-c4cccc(C#N)c4C)ccc32)[nH]1` the IC50 was 39.1 µM. For `CCN(CC)CCNC(=O)c1c(C)[nH]c(/C=C2\C(=O)Nc3ccc(-c4ccc(-c5cccnc5)s4)cc32)c1C`, the IC50 was 40.8 µM. `CCN(CC)CCNC(=O)c1c(C)[nH]c(/C=C2\C(=O)Nc3ccc(C4CCN(c5ncccn5)CC4)cc32)c1C` gave an IC50 of 18.8 µM. `CC(=O)N1CCC(N2CCC(c3ccc4c(c3)/C(=C/c3[nH]c(C)c(C(=O)N5CCN(C)CC5)c3C)C(=O)N4)CC2)CC1` gave an IC50 of 15.6 µM. Molecule `Cc1[nH]c(/C=C2\C(=O)Nc3ccc(-c4cnn(-c5ccccc5)c4C)cc32)c(C)c1C(=O)NCCN1CCCC1` has an IC50 of 1.31 µM. Molecule `CCN(CC)CCNC(=O)c1c(C)[nH]c(/C=C2\C(=O)Nc3ccc(-c4ccnn4-c4ccc(C#N)cc4)cc32)c1C` has an IC50 of 4.96 µM. `CCN(CC)CCNC(=O)c1c(C)[nH]c(/C=C2\C(=O)Nc3ccc(-c4oc(-c5ccccc5)nc4C)cc32)c1C` was tested, and the IC50 was 18.2 µM.

What follows are molecules tested on A549 (assay: Cytotoxic activity against human A549 cancer stem cells incubated for 72 hrs by Cell-titer-Glo luminescence assay). Conditions: A549, 72 h.
Assay type: functional, cell-based
With `Cc1[nH]c(/C=C2\C(=O)Nc3ccc(-c4csc(-c5ccccc5)n4)cc32)c(C)c1CCC(=O)O` the IC50 was 1.65 µM.

These molecules were tested on A549 (assay: Cytotoxic activity against human A549 bulk cells incubated for 72 hrs by Cell-titer-Glo luminescence assay). Conditions: A549, 72 h.
Assay type: functional, cell-based
Work on `COc1ccc(-c2ccc3c(c2)/C(=C/c2[nH]c(C)cc2C)C(=O)N3)nc1` yielded an IC50 of 0.07 µM. With `CCN(CC)CCN1CCCc2[nH]c(/C=C3\C(=O)Nc4ccc(-c5csc(-c6ccccc6)n5)cc43)c(C)c2C1=O` the IC50 was 18 µM. Work on `CCN(CC)CCNC(=O)c1c(C)[nH]c(/C=C2\C(=O)Nc3ccc(-c4nnc(-c5ccccc5)s4)cc32)c1C` yielded an IC50 of 48.9 µM. Molecule `CCN(CC)CCNC(=O)c1c(C)[nH]c(/C=C2\C(=O)Nc3ccc(C4CCN(c5ccccc5)CC4)cc32)c1C` has an IC50 of 16 µM. Work on `O=C1Nc2ccc(-c3csc(-c4ccncc4)n3)cc2/C1=C/c1ccc(N2CCNCC2)cc1` yielded an IC50 of 8.73 µM.
